Data from patent publication US6706663B2, “Herbicidal 3-heterocyclic substituted benzisothiazole and benzisoxazole compounds” (Wyeth, priority 2000, dated 2004).

Tests used:
[1] = system: TRZAWR (Wheat, Winter, cv Riband); assay: Postemergence herbicidal evaluation; assay type: in vivo, Triticum aestivum; conditions: postemergence
Summary of the method: (§1)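 Seedlings grown about two weeks in flats, sprayed, then kept under standard greenhouse care. Rated visually 4–5 weeks after treatment on a 0–9 scale (stand, vigour, malformation, size, chlorosis, overall appearance) relative to untreated control; repeat tests averaged.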

[2] = system: GLXMAW (Soybean, Williams); assay: Preemergence herbicidal evaluation; assay type: in vivo, Glycine max, (L.) Merr. cv Williams; conditions: rated 4-5 weeks after treatment
[3] = system: ZEAMX (Corn, Field); assay: Preemergence herbicidal evaluation; assay type: in vivo, Zea mays, L.; conditions: rated 4-5 weeks after treatment
[4] = system: SETVI (Setaria viridis); assay: Postemergence herbicidal evaluation; assay type: in vivo, (L.) Beau; conditions: postemergence
Summary of the method: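 Seedlings grown about two weeks were sprayed with compound in 50/50 acetone/water containing 0.5% TWEEN 20, at about 0.0040 to 1.000 kg/ha via nozzle at 40 psi. Plants were kept under greenhouse conditions and visually rated on a 0-9 scale versus control four to five weeks after treatment; replicate tests averaged.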

[5] = system: MOOVA (Monochoria vaginalis); assay: Flooded paddy, preemergence weed control; assay type: in vivo, Presl.; conditions: rated 3-4 weeks after treatment, 0-9 rating scale
Summary of the method: (§2)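 Preemergence, flooded: propagules planted at 0.5 cm depth in silt loam, water level maintained at 1.5 to 3 cm over soil, containers kept on greenhouse benches. Activity scored 0-9 by eye relative to a control plant.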

[6] = system: IPOHE (Ipomoea hederacea); assay: Postemergence herbicidal evaluation; assay type: in vivo, (L.) Jacq.; conditions: postemergence
Summary of the method: as §1

[7] = system: ECHCG (Echinochloa crus-galli); assay: Preemergence herbicidal evaluation; assay type: in vivo, (L.) Beau; conditions: rated 4-5 weeks after treatment
Summary of the method: (§3)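 Seeds planted in potting soil cups and sprayed preemergence with aqueous acetone compound solution. Greenhouse-grown; rated 4–5 weeks after treatment on a 0-9 visual scale (stand, vigor, malformation, size, chlorosis, appearance) versus control.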

[8] = system: SETVI (Setaria viridis); assay: Preemergence herbicidal evaluation; assay type: in vivo, (L.) Beau; conditions: rated 4-5 weeks after treatment
Summary of the method: as §3

[9] = system: ECHORC (Echinochloa oryzoides); assay: Flooded paddy, preemergence weed control; assay type: in vivo, Echinochloa oryzoides (Ard.) Fritsch.; conditions: rated 3-4 weeks after treatment, 0-9 rating scale
Summary of the method: as §2

[10] = system: CYPIR (Cyperus iria); assay: Flooded paddy, preemergence weed control; assay type: in vivo; conditions: rated 3-4 weeks after treatment, 0-9 rating scale
Summary of the method: as §2

| Compound | TRZAWR herbicidal rating ([1]; rate 0.0320 kg/ha) | TRZAWR herbicidal rating ([1]; rate 0.0620 kg/ha) | Preemergence herbicidal rating GLXMAW ([2]; Rate 0.0620 kg/ha) | Preemergence herbicidal rating GLXMAW ([2]; Rate 0.1250 kg/ha) | Preemergence herbicidal rating ZEAMX ([3]; Rate 0.0620 kg/ha) | Preemergence herbicidal rating ZEAMX ([3]; Rate 0.1250 kg/ha) | SETVI herbicidal rating ([4]; rate 0.0320 kg/ha) | SETVI herbicidal rating ([4]; rate 0.0620 kg/ha) | herbicidal rating, MOOVA ([5]; rate 0.0080 kg/ha) | herbicidal rating, MOOVA ([5]; rate 0.0320 kg/ha) | herbicidal rating, MOOVA ([5]; rate 0.1250 kg/ha) | IPOHE herbicidal rating ([6]; rate 0.0320 kg/ha) | IPOHE herbicidal rating ([6]; rate 0.0620 kg/ha) | Preemergence herbicidal rating ECHCG ([7]; Rate 0.0620 kg/ha) | Preemergence herbicidal rating ECHCG ([7]; Rate 0.1250 kg/ha) | Preemergence herbicidal rating SETVI ([8]; Rate 0.0620 kg/ha) | Preemergence herbicidal rating SETVI ([8]; Rate 0.1250 kg/ha) | herbicidal rating, ECHORC ([9]; rate 0.0080 kg/ha) | herbicidal rating, ECHORC ([9]; rate 0.0320 kg/ha) | herbicidal rating, ECHORC ([9]; rate 0.1250 kg/ha) | further results |
| --- | --- | --- | --- | --- | --- | --- | --- | --- | --- | --- | --- | --- | --- | --- | --- | --- | --- | --- | --- | --- | --- |
| C[C@@H]1C[C@H](C)OC(c2nsc3cc(F)c(-n4c(=O)cc(C(F)(F)F)n(C)c4=O)cc23)O1 (stereo partly drawn) [Compound 67, 3-[3-[(4R,6S)-4,6-dimethyl-m-dioxan-2-yl]-6-fluoro-1,2-benzisothiazol-5-yl]-1-methyl-6-(trifluoromethyl)uracil] | 4.0 | 4.0 | 9.0 | 9.0 | 9.0 | 9.0 | 9.0 | 7.0 | 0.0 | 9.0 | 9.0 | 9.0 | 9.0 | 9.0 | 9.0 | 9.0 | 9.0 | 4.5 | 9.0 | 9.0 | herbicidal rating, CYPIR ([10]; rate 0.0080 kg/ha): 4.5; herbicidal rating, CYPIR ([10]; rate 0.0320 kg/ha): 7.0; herbicidal rating, CYPIR ([10]; rate 0.1250 kg/ha): 9.0 |
| Cc1sccc1-c1nsc2ccc(-n3c(=O)cc(C(F)(F)F)n(C)c3=O)cc12 [Compound 68, 2,4(1H,3H)-pyrimidinedione, 1-methyl-3-[3-(2-methyl-3-thienyl)-1,2-benzisothiazol-5-yl]-6-(trifluoromethyl)-] | 4.0 | 4.5 | 1.5 | 3.0 | 2.5 | 4.0 | 4.0 | 8.0 | 7.0 | 9.0 | 9.0 | 9.0 | 9.0 | 8.5 | 9.0 | 9.0 | 9.0 | 7.0 | 8.5 | 9.0 | Preemergence herbicidal rating GLXMAW ([2]; Rate 0.2500 kg/ha): 7.5; Preemergence herbicidal rating ZEAMX ([3]; Rate 0.2500 kg/ha): 6.0; Preemergence herbicidal rating ECHCG ([7]; Rate 0.2500 kg/ha): 9.0; Preemergence herbicidal rating SETVI ([8]; Rate 0.2500 kg/ha): 9.0; herbicidal rating, CYPIR ([10]; rate 0.0080 kg/ha): 0.0; herbicidal rating, CYPIR ([10]; rate 0.0320 kg/ha): 9.0; herbicidal rating, CYPIR ([10]; rate 0.1250 kg/ha): 9.0 |
| Cn1c(C(F)(F)F)cc(=O)n(-c2ccc3snc(C4OCC5(CO4)CO5)c3c2)c1=O (stereo not shown) [Compound 70, 1-methyl-3-(3-spiro[m-dioxane-5,2′-oxiran]-2-yl-1,2-benzisothiazol-5-yl)-6-(trifluoromethyl)uracil] | 5.0 | 5.5 | 3.0 | 9.0 | 2.0 | 9.0 | 9.0 | 9.0 | 0.0 | 0.0 | 0.0 | 7.0 | 9.0 | 3.0 | 7.0 | 6.0 | 9.0 | 0.0 | 0.0 | 0.0 | herbicidal rating, CYPIR ([10]; rate 0.0080 kg/ha): 0.0; herbicidal rating, CYPIR ([10]; rate 0.0320 kg/ha): 0.0; herbicidal rating, CYPIR ([10]; rate 0.1250 kg/ha): 0.0 |
